Legend:
[1] = target: F508del-CFTR (Homo sapiens, UniProt P13569, DEL508-508); assay: Immunofluorescence confocal microscopy of CFTR localization in CFBE41o- cells; assay type: cell-based; details: CFBE cells, 24 hours; 2 μM IDOR-3, 2 μM IDOR-4, 10 μM other correctors
Method: CFBE-WT-CFTR and CFBE-F508del-CFTR cells were seeded at 10,000 cells per well onto FNC-coated eight-well chamber slides for a few hours and incubated with fixed concentrations of correctors or corresponding vehicle for 24 hours. Then, cells were washed once with PBS, fixed with 3% paraformaldehyde (37°C, 10 min) in PBS, washed twice with PBS, and then blocked with 10% FBS and 0.1% saponin in PBS (blocking buffer) for 1 hour at room temperature. Cells were then stained with mouse monoclonal anti-CFTR antibody 570 (1:200 in above blocking buffer; Cystic Fibrosis Foundation) and rabbit polyclonal anti–ZO-1 antibody (1:200; Thermo Fisher Scientific #40-2200) for 2 hours at room temperature and then washed three times in blocking buffer, followed by the addition of secondary antibodies in blocking buffer [goat-anti-rabbit-IgG-Alexa Fluor 488 (Thermo Fisher Scientific #A11034) and goat-anti-mouse-IgG-Alexa Fluor 568 (Thermo Fisher Scientific #A11031) both 1:200] and Hoechst 33342 (2 μg/ml from 10 mg/ml stock, Thermo Fisher Scientific #H3570). After 30 min at room temperature, cells were washed three times with blocking buffer and two times with PBS and mounted. Images were taken with fixed settings using the Leica confocal microscope TCS SP5 and the 63× objective. Z-stacks of 10 slices (0.9-μm distance) were taken and fused into one image by maximal intensity projection.

[2] = target: T1, F508del-CFTR-G550E.R553M.R555K (3TS) (Homo sapiens, UniProt P13569, DEL508-508/G550E/R553M/R555K); assay: CFTR immunoblotting in HEK-TREx cells expressing thermostabilized F508del-CFTR (3TS); assay type: cell-based; details: 48 hours, IDOR-3 2 μM, IDOR-4 0.4 μM, TEZ 2 μM, ELX 0.4 μM
T1 construct: expressed in transfected cells; host or cells: T-REx HEK293
Text: The human CFTR expressing HEK cell pools with the mutations described below were generated by integrase-mediated homologous recombination of the CFTR sequence into the T-REx HEK293 background (Thermo Fisher Scientific). This expression system allows the tetracycline-inducible expression of genes of interest from one defined insertion site. Parental T-REx-HEK293 cells were cultivated in growth medium: Dulbecco’s modified Eagle’s medium + GlutaMAX-I (#31966, Life Technologies), 10% dialyzed FBS (Gibco, #26400), penicillin (100 U/ml), streptomycin (100 μg/ml), hygromycin B (0.1 mg/ml; Life Technologies), blasticidin (5 μg/ml; Invitrogen, #R210-01), and 0.1 mM nonessential amino acid solution (Invitrogen, #11140-035). Recombinant T-REx-HEK-CFTR cells were generated by lipofectamine transfection (Life Technologies) of plasmids containing mutated versions of CFTR (RefSeq NM_000492) and then cultivated in selection medium [growth medium containing Geneticin (1 mg/ml) (Invitrogen, #10131-027) instead of hygromycin]. The plasmid constructs were synthetized by GENEART (Thermo Fisher Scientific) and designed with the WT CFTR intron 5 to 6 (880 nucleotides) to prevent leaky expression issues during the cloning process in bacteria. For evaluation of corrector efficacies on second-site suppressor mutants, the following mutations were introduced into the CFTR.F508del gene sequence: G550E.R553M.R555K and G550E.R553M.R555K.R1070W. The following plasmids expressing different truncated versions of CFTR.F508del gene were generated: K381X, delF508-M837X, delF508-E1172X, and M837-L1480. For the evaluation of different binding sites by site-directed mutagenesis, the following mutations were introduced individually into the CFTR.F508del gene: del14-21, K14A, K14A.R80V, K14A.Y84F, L15W, R1102A, and L195W. Deletion of the peptide stretching amino acids 14 to 21 was also introduced into truncated K381X: del14-21.K381X. […]

F508del-CFTR, sequence (P13569 with tags, fused parts or gaps DEL508-508): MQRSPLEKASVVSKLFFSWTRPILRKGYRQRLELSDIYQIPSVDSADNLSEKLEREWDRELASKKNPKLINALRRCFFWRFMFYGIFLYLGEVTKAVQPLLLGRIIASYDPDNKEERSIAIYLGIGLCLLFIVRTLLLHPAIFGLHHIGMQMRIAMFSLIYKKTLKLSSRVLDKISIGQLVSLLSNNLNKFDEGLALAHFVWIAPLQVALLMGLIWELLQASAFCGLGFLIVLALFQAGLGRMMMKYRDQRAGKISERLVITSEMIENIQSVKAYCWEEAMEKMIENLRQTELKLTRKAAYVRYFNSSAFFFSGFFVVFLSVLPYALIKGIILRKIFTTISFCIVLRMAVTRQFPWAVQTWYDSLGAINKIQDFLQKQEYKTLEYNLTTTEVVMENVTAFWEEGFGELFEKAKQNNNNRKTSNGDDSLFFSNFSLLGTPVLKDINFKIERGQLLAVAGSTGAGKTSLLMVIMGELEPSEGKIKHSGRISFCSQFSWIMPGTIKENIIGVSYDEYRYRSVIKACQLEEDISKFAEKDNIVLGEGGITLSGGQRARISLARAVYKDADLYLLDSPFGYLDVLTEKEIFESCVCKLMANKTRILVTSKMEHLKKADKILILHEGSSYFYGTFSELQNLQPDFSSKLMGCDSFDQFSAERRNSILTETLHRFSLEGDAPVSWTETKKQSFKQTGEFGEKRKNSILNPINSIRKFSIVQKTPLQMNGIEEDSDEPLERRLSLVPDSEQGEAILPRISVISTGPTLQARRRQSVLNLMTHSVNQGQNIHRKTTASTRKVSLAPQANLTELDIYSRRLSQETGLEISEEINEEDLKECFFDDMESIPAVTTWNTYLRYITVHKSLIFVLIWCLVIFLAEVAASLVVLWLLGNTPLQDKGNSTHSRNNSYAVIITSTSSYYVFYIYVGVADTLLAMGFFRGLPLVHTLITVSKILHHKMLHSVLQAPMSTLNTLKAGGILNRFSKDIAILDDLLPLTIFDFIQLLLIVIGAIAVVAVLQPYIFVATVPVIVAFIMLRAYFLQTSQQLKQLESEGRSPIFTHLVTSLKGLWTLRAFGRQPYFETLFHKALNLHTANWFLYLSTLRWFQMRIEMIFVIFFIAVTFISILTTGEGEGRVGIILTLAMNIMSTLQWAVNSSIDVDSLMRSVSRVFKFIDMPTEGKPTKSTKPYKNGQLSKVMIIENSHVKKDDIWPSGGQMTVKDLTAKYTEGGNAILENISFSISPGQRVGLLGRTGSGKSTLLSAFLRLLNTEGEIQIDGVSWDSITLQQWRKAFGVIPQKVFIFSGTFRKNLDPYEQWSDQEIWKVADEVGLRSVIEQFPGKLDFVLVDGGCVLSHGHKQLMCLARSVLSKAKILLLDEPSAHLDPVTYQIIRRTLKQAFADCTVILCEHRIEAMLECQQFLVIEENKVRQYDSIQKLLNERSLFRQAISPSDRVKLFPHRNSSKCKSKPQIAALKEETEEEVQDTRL
T1 sequence (P13569 with tags, fused parts or gaps DEL508-508/G550E/R553M/R555K): as the sequence (P13569 with tags, fused parts or gaps DEL508-508) above, with G549E, R552M, R554K counted along it

Structure (SMILES) | F508del-CFTR localization (plasma membrane vs intracellular) [1] | improvement of C-band expression after introduction of 3TS mutations [2]
Cc1nn(C)cc1S(=O)(=O)NC(=O)c1ccc(-n2ccc(OCC(C)(C)C(F)(F)F)n2)nc1N1C[C@@H](C)CC1(C)C [ELX, elexacaftor] | mainly intracellular CFTR staining | ~ 4 fold
COc1cc(CCNC(=O)C2CC(=O)N(C)C(CC(C)C)C(=O)N3CCCCC3C(=O)NC(Cc3ccccc3)COc3ccc4ncc(F)cc4c3C(=O)N2)on1 (stereo not drawn) [IDOR-3] | closely resembled the localization of WT-CFTR | ~ 1.5 fold
CC(C)(CO)c1cc2cc(NC(=O)C3(c4ccc5c(c4)OC(F)(F)O5)CC3)c(F)cc2n1C[C@@H](O)CO [TEZ, tezacaftor] | mainly intracellular CFTR staining | ~ 4 fold

From paper PMC11801377, “A uniquely efficacious type of CFTR corrector with complementary mode of action” (Science Advances, 2024)
